Drawing on patent US11999727B2 (Tango Therapeutics, Inc., priority 2020, dated 2024), this text covers IC50 for 28 molecules.

Structures are written as SMILES. Read-outs that look alike come from different tables or passages of the source.

Test [1] addresses T1, PRMT5 (Homo sapiens, UniProt O14744).
T1 construct: purchased Viva (custom protein)
The test can be described thus: PRMT5 biochemical IC50 assay with SAM as cofactor. The settings on record: PRMT5, SAM as cofactor; read-out: SAM IC50.

In test [2] the target is T1, PRMT5. The test can be described thus: PRMT5 biochemical IC50 assay with no cofactor. The settings on record: PRMT5, no cofactor; read-out: No Cofactor/rel IC50. From the text:
Table 1 indicates IC50 values (μM) against PRMT5 for exemplary compounds in the presence of SAM as cofactor, with no cofactor, and with MTA as cofactor, respectively (columns 4-6). […] Ki values can be calculated from the IC50 values as described in the Examples section. As detailed in the Examples section, for the assay performed in the presence of SAM, IC50=Ki×1.5 (Ki=IC50/1.5).

Test [3] concerns the target T1, PRMT5. The test can be described thus: PRMT5 biochemical IC50 assay with MTA as cofactor. The settings on record: PRMT5, MTA as cofactor; read-out: MTA IC50.
For test [4], the system named is HAP1 MTAP-deleted cell line. The test can be described thus: Viability assay, MTAP-deleted cell line. Type of test: cell-based. The settings on record: Homo sapiens, read-out: HAP1 MTAP deleted viability. From the text:
Table 1 additionally indicates IC50 values in a viability assay for the MTAP-deleted cell line (column 10), indicating the effect of treatment with compound on cell survival.

The mark [5] stands for this setting: HAP1, viability assay, MTAP-deleted cell line.
Where [6] appears, read: HAP1, viability IC50, MTAP-deleted cell line.
Setting [7] is: HAP1, viability assay, HAP1 MTAP-deleted.

T1 sequence (O14744 whole entry): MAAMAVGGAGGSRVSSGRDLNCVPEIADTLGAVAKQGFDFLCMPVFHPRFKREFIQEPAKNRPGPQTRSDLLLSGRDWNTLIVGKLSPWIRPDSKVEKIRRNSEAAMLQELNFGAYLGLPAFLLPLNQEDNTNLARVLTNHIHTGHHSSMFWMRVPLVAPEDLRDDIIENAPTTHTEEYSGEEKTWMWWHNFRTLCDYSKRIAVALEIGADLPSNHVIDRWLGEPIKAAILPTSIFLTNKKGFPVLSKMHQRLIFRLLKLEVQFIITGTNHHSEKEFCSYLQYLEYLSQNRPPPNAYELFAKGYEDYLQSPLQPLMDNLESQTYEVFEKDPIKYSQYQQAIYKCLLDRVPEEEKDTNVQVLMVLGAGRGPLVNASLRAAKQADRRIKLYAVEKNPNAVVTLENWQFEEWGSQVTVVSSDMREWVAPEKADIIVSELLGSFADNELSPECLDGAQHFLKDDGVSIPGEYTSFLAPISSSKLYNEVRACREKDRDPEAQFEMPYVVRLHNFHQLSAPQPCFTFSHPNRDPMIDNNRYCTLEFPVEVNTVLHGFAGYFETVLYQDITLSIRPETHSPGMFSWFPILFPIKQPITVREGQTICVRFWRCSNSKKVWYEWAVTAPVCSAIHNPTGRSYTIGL
T1 sequence (Q9BQA1 whole entry partner): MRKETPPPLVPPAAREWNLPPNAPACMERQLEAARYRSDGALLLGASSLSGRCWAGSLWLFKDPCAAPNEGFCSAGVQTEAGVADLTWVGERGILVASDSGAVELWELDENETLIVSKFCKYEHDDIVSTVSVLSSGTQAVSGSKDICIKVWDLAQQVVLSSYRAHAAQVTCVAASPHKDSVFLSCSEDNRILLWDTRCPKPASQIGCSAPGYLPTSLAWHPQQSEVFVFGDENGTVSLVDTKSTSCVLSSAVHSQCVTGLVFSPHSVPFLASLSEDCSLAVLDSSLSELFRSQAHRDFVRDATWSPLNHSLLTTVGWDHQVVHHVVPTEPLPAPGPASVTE

As for `Cc1cc(NC(=O)C(=O)N2C[C@@H](C)CC[C@@H]2[C@H]2CC[C@@H](O)CC2)cnc1N` (single isomer, unassigned) [Compound 423], the IC50 on PRMT5 [1] is > 500 nM; at PRMT5 [2] it was > 500 nM; on PRMT5 [3], > 500 nM; in test [4] (setting [5]), > 10000 nM.
Take `CNc1ccc([C@@H]2CC[C@@H](C)CN2C(=O)C(=O)Nc2cncc(C(N)=O)c2)cc1` (single isomer, unassigned) [Compound 424]: the IC50 on PRMT5 [1] was > 500 nM; on PRMT5 [2], > 500 nM; on PRMT5 [3], > 500 nM; in test [4] (setting [5]), > 10000 nM.
Take `C[C@H]1CC[C@H](c2ccc3c(c2)CCCN3)N(C(=O)C(=O)Nc2cncc(C(N)=O)c2)C1` (single isomer, unassigned) [Compound 426]: the IC50 on PRMT5 [1] is > 500 nM; on PRMT5 [2] it was > 500 nM; at PRMT5 [3], > 500 nM; in test [4] (setting [5]), > 10000 nM.
On to `Cc1cc(NC(=O)C(=O)N2C[C@@H](C)CC[C@@H]2[C@H]2CC[C@H](O)CC2)cnc1N` (single isomer, unassigned) [Compound 434], for which the IC50 at PRMT5 [1] is > 500 nM; on PRMT5 [2] it was > 500 nM; on PRMT5 [3] it was > 500 nM; in test [4] (setting [5]), > 10000 nM.
As for `C[C@@H]1CC[C@@H](c2ccccc2)N(C(=O)C(=O)Nc2cncc(C(N)=O)c2)[C@@H]1C` (single isomer, unassigned) [Compound 435], the IC50 is > 500 nM on PRMT5 [1], > 500 nM on PRMT5 [2], > 500 nM on PRMT5 [3] and > 10000 nM in test [4] (setting [5]).
With `C[C@@H]1CC[C@@H](c2cccc(Cl)c2)N(C(=O)C(=O)Nc2cncc(C(N)=O)c2)C1` (single isomer, unassigned) [Compound 441], the IC50 at PRMT5 [1] is > 500 nM; at PRMT5 [2] it was > 500 nM; on PRMT5 [3], > 500 nM; in test [4] (setting [5]), > 10000 nM.
For `CNc1ccc([C@H]2CC[C@H](C)CN2C(=O)C(=O)Nc2cncc(C(N)=O)c2)cn1` (single isomer, unassigned) [Compound 444], the IC50 on PRMT5 [1] was > 500 nM; on PRMT5 [2], > 500 nM; on PRMT5 [3] it was > 500 nM; in test [4] (setting [5]) it was > 10000 nM.
For `COc1ncc(NC(=O)C(=O)N2C[C@@H](C)CC[C@@H]2c2ccc(F)cc2)cc1C(N)=O` (single isomer, unassigned) [Compound 445], the IC50 at PRMT5 [1] was > 500 nM; at PRMT5 [2], > 500 nM; on PRMT5 [3], > 500 nM; in test [4] (setting [5]), > 10000 nM.
In the case of `CNc1cccc([C@H]2CC[C@H](C)CN2C(=O)C(=O)Nc2cnc(N)c(C)c2)c1` (single isomer, unassigned) [Compound 450], the IC50 on PRMT5 [1] is > 500 nM; at PRMT5 [2], > 500 nM; on PRMT5 [3] it was > 500 nM; in test [4] (setting [5]) it was > 10000 nM.
Regarding `CC(=O)Nc1ccc([C@H]2CC[C@H](C)CN2C(=O)C(=O)Nc2cncc(C(N)=O)c2)cc1` (single isomer, unassigned) [Compound 452], the IC50 at PRMT5 [1] was > 500 nM; on PRMT5 [2], > 500 nM; at PRMT5 [3] it was > 500 nM; in test [4] (setting [5]) it was > 10000 nM.
As for `C[C@H]1CC[C@H](c2ccc(NCC(F)(F)F)cc2)N(C(=O)C(=O)Nc2cncc(C(N)=O)c2)C1` (single isomer, unassigned) [Compound 456], the IC50 on PRMT5 [1] is > 500 nM; on PRMT5 [2], > 500 nM; on PRMT5 [3], > 500 nM; in test [4] (setting [5]), > 10000 nM.
For `COc1ncc(NC(=O)C(=O)N2C[C@@H](C)CC[C@@H]2c2ccc3c(c2)CCC(=O)N3)cc1C(N)=O` (single isomer, unassigned) [Compound 673], the IC50 at PRMT5 [1] was > 500 nM; on PRMT5 [2] it was > 500 nM; on PRMT5 [3], > 500 nM; in test [4] (setting [6]), > 10000 nM.
`Cc1cc(NC(=O)C(=O)N2C[C@H](C)CC[C@H]2c2cc(Cl)cc(C(F)(F)F)c2)cnc1N` (single isomer, unassigned) [Compound 679]: the IC50 was > 500 nM on PRMT5 [1], > 500 nM on PRMT5 [2], 50 to 500 nM on PRMT5 [3] and > 10000 nM in test [4] (setting [6]).
For the molecule `C[C@H]1CC[C@H](c2cc(F)c3[nH]ncc3c2)N(C(=O)C(=O)Nc2cncc(C(N)=O)c2)C1` (single isomer, unassigned) [Compound 680], the IC50 was > 500 nM on PRMT5 [1], > 500 nM at PRMT5 [2], > 500 nM at PRMT5 [3] and > 10000 nM in test [4] (setting [6]).
In the case of `Cc1cc(NC(=O)C(=O)N2C[C@@H](C)CC[C@@H]2c2cc(F)cc(Cl)c2)cnc1N` (single isomer, unassigned) [Compound 682], the IC50 was > 500 nM at PRMT5 [1], > 500 nM at PRMT5 [2], 50 to 500 nM on PRMT5 [3] and > 10000 nM in test [4] (setting [6]).
Consider `CCc1cc(NC(=O)C(=O)N2C[C@H](C)CC[C@H]2c2ccc3c(c2)C(=O)NC3)cnc1N` (single isomer, unassigned) [Compound 695], for which the IC50 at PRMT5 [1] was > 500 nM; on PRMT5 [2], > 500 nM; at PRMT5 [3], > 500 nM; in test [4] (setting [6]) it was > 10000 nM.
Consider `Cc1ncc(NC(=O)C(=O)N2C[C@@H](C)CC[C@@H]2c2ccc3c(c2)CCC(=O)N3)cc1C(F)(F)F` (single isomer, unassigned) [Compound 698], for which the IC50 is > 500 nM on PRMT5 [1], > 500 nM at PRMT5 [2], > 500 nM on PRMT5 [3] and > 10000 nM in test [4] (setting [6]).
Consider `CCc1cc(NC(=O)C(=O)N2C[C@H](C)CC[C@H]2c2ccc3c(c2)CNC3=O)cnc1N` (single isomer, unassigned) [Compound 699, N-(6-amino-5-ethylpyridin-3-yl)-2-(5-methyl-2-(1-oxoisoindolin-5-yl)piperidin-1-yl)-2-oxoacetamide], for which the IC50 on PRMT5 [1] is > 500 nM; at PRMT5 [2], > 500 nM; at PRMT5 [3] it was > 500 nM; in test [4] (setting [6]) it was > 10000 nM.
As to `Cc1cc(NC(=O)C(=O)N2C[C@H](C)CC[C@H]2c2cc(F)cc(F)c2)cnc1N` (single isomer, unassigned) [Compound 712, N-(6-amino-5-methylpyridin-3-yl)-2-(2-(3,5-difluorophenyl)-5-methylpiperidin-1-yl)-2-oxoacetamide], the IC50 on PRMT5 [1] was > 500 nM; at PRMT5 [2], > 500 nM; on PRMT5 [3] it was > 500 nM; in test [4] (setting [7]), > 10000 nM.
For `Cc1cc(NC(=O)C(=O)N2C[C@@H](C)C(F)(F)C[C@@H]2c2ccccc2)cnc1N` (single isomer, unassigned) [Compound 713], the IC50 on PRMT5 [1] was > 500 nM; on PRMT5 [2], > 500 nM; at PRMT5 [3] it was > 500 nM; in test [4] (setting [7]) it was > 10000 nM.
Take `CNS(=O)(=O)c1ccc([C@@H]2CC[C@@H](C)CN2C(=O)C(=O)Nc2cncc(C(N)=O)c2)cc1` (single isomer, unassigned) [Compound 723]: the IC50 on PRMT5 [1] is > 500 nM; on PRMT5 [2], > 500 nM; on PRMT5 [3], > 500 nM; in test [4] (setting [7]), > 10000 nM.
For `CC(=O)Nc1ccc([C@H]2CC[C@H](C)CN2C(=O)C(=O)Nc2cncc(C(N)=O)c2)cn1` (single isomer, unassigned) [Compound 905], the IC50 is > 500 nM at PRMT5 [1], > 500 nM on PRMT5 [2], > 500 nM on PRMT5 [3] and > 10000 nM in test [4] (setting [5]).
In the case of `Cc1cc(NC(=O)C(=O)N2C[C@H](C)CC[C@H]2c2ccc(S(C)(=O)=O)cc2)cnc1N` (single isomer, unassigned) [Compound 938], the IC50 on PRMT5 [1] was > 500 nM; on PRMT5 [2], > 500 nM; on PRMT5 [3], > 500 nM; in test [4] (setting [5]) it was > 10000 nM.
Consider `Cc1cc(NC(=O)C(=O)N2C[C@@H](C)CC[C@@H]2c2cccc3c2CCN3)cnc1N` (single isomer, unassigned) [Compound 957], for which the IC50 on PRMT5 [1] is > 500 nM; on PRMT5 [2], > 500 nM; at PRMT5 [3], > 500 nM; in test [4] (setting [5]) it was > 10000 nM.
On to `Cc1cc(NC(=O)C(=O)N2C[C@@H](C)CC[C@@H]2c2ccc3[nH]nc(N)c3c2)cnc1C` (single isomer, unassigned) [Compound 958], for which the IC50 was > 500 nM on PRMT5 [1], > 500 nM on PRMT5 [2], > 500 nM at PRMT5 [3] and > 10000 nM in test [4] (setting [5]).
With `C[C@H]1CC[C@H](c2cc3cn[nH]c3s2)N(C(=O)C(=O)Nc2cncc(C(N)=O)c2)C1` (single isomer, unassigned) [Compound 971, 5-(2-(5-methyl-2-(1H-thieno[2,3-c]pyrazol-5-yl)piperidin-1-yl)-2-oxoacetamido)nicotinamide], the IC50 at PRMT5 [1] was > 500 nM; at PRMT5 [2], > 500 nM; on PRMT5 [3] it was > 500 nM; in test [4] (setting [5]), > 10000 nM.
On to `Cc1cc(NC(=O)C(=O)N2C[C@@H](C)CC[C@@H]2c2ccc(S(C)(=O)=O)cc2)cnc1N` (single isomer, unassigned) [Compound 976], for which the IC50 at PRMT5 [1] was 50 to 500 nM; at PRMT5 [2], 50 to 500 nM; on PRMT5 [3], < 50 nM; in test [4] (setting [5]) it was 1000 to 10000 nM.
Consider `Cc1cc(NC(=O)C(=O)N2C[C@H](C)CC[C@H]2c2ccc3sc(N)nc3c2)cnc1N` (single isomer, unassigned) [Compound 981], for which the IC50 was > 500 nM on PRMT5 [1], > 500 nM on PRMT5 [2], > 500 nM at PRMT5 [3] and > 10000 nM in test [4] (setting [5]).
